Assay results reported in patent US6239131A, “1,5 Benzodiazepine derivatives” (Zeria Pharmaceutical Co., Ltd., priority 1996, dated 2001).

These compounds were tested against T1, CCK-B receptors (Cavia porcellus, UniProt H0VZC5) (assay: Measurement of Binding Affinity for CCK-B Receptors). Settings: inhibition of specific [3H]CCK-8 (1.0 nM) binding; guinea pig cerebral cortex; 25° C., 2 hours; pH 6.5; read-out: Ki (CCK-B receptors).
T1 construct: Cerebral cortices were removed from Hartley-strain guinea pigs, the cerebral cortices were homogenized; from tissue; host or cells: cerebral cortex of Hartley-strain guinea pigs, crude membrane pellet
T1 sequence (H0VZC5 1-426): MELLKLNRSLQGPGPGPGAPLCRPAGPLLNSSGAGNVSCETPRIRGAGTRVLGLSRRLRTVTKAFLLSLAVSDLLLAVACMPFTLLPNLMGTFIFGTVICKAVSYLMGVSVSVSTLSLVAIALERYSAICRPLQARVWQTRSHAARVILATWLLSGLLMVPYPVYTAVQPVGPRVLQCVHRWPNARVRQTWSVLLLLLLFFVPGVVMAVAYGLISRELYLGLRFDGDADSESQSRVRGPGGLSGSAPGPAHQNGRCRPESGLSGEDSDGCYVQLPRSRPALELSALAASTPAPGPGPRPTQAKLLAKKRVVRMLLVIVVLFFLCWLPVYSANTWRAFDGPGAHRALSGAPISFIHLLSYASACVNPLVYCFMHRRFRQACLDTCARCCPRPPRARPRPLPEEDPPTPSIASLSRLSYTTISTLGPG
Design: species or system Hartley-strain guinea pig
Protocol: Cerebral cortices were removed from Hartley-strain guinea pigs, the cerebral cortices were homogenized in 50 volumes of 50 mM Tris-HCl buffer (pH7.4) and centrifuged at 50000×g for 10 minutes. The Tris-HCl buffer was added to the pellet and recentrifuged as above two times. The final pellet was rehomogenized in 10 mM HEPES buffer (pH 6.5, which hereinafter be abbreviated as "solvent") containing 5 mM MgCl2, 1 mM EGTA, 0.25 mg/ml bacitracin and 130 mM NaCl, and used as the receptor preparation.
Binding assay was measured as follows. Fifty μl of [^3 H]CCK-8 (at the final concentration of 1.0 nM) and 900 μl of the receptor preparation (800 μg protein/tube) were added to 50 μl of either solvent, CCK-8 (1 μM) or a test compound. These ware reacted at 25° C. for 2 hours. After the reaction, the mixture was filtrated through Whatman GF/B filter presoaked in 0.1% BSA. The filter was washed with 3 ml of ice-cold 50 mM Tris-HCl buffer (pH 7.4) four times, immediately after the filtration. The filter was soaked in the ACS-II scintillation cocktail for a day and radioactivity was measured using a liquid scintillation counter. Non-specific binding was defined as the radioactivity in the presence of 1 μM CCK-8. Specific binding was defined as the difference between total binding (used solvent without CCK-8) and non-specific binding. Inhibitor dissociation constant (Ki) of each test compound was determined from the inhibition of specific [^3 H]CCK-8 binding.

Row | Structure (SMILES) | Ki [nM]
1 | CC(C)(C)C(=O)CN1C(=O)C(NC(=O)Nc2cccc(OCC(=O)O)c2)CN(c2ccccc2)c2ccccc21 (stereo not drawn) [Example 35, 3-[3-(1-tert-butylcarbonylmethyl-2-oxo-5-phenyl-1,3,4,5-tetrahydro-2H-1,5-benzodiazepin-3-yl)ureido]phenoxyacetic acid] | 0.61
2 | CC(C)(C)C(=O)CN1C(=O)[C@H](NC(=O)Nc2cccc(C(=O)O)c2)CN(C[C@@H]2CC[C@H]3C[C@@H]2C3(C)C)c2ccccc21 [Example 157, 3-[3-[(3R)-1-tert-butylcarbonylmethyl-2-oxo-5-[(1S, 2R, 5S)-pinan-10-yl]-1,3,4,5-tetrahydro-2H-1,5-benzodiazepin-3-yl]ureido]benzoic acid] | 1.97
3 | Cc1cccc(NC(=O)NC2CN(C(=O)C(C)(C)C)c3ccc(C)cc3N(CC(=O)c3ccccc3C)C2=O)c1 (stereo not drawn) [Example 4, 1-[1-(2-toluoylmethyl)-2-oxo-5-pivaloyl-8-methyl-1,3,4,5-tetrahydro-2H-1,5-benzodiazepin-3-yl]-3-(3-methylphenyl)urea] | 1.11
4 | CC(C)(C)OC(=O)CN1C(=O)C(NC(=O)Nc2cccc(C(=O)NS(C)(=O)=O)c2)CN(c2ccccc2)c2ccccc21 (stereo not drawn) [Example 16, 1-(1-tert-butoxycarbonylmethyl-2-oxo-5-phenyl-1,3,4,5-tetrahydro-2H-1,5-benzodiazepin-3-yl)-3-(3-methylsulfonylaminocarbonylphenyl)urea] | 2.14
5 | Cc1ccccc1C(=O)CN1C(=O)C(NC(=O)Nc2cccc(SCC(=O)O)c2)CN(C(=O)C(C)(C)C)c2ccccc21 (stereo not drawn) [Example 78, 3-[3-[1-(2-toluoylmethyl)-2-oxo-5-pivaloyl-1,3,4,5-tetrahydro-2H-1,5-benzodiazepin-3-yl]ureido]phenylthioacetic acid] | 0.18
6 | CC(C)(C)C(=O)CN1C(=O)[C@H](NC(=O)Nc2cccc(OC(C)(C)C(=O)O)c2)CN(C2CCCCC2)c2ccccc21 [Example 125, (R)-(-)-2-methyl-2-[3-[3-(1-tert-butylcarbonylmethyl-2-oxo-5-cyclohexyl-1,3,4,5-tetrahydro-2H-1,5-benzodiazepin-3-yl)ureido]phenoxy]propionic acid] | 0.43
7 | CC(C)(C)C(=O)CN1C(=O)C(NC(=O)Nc2cccc(C(=O)NS(C)(=O)=O)c2)CN(c2ccccc2)c2ccccc21 (stereo not drawn) [Example 46, 1-(1-tert-butylcarbonylmethyl-2-oxo-5-phenyl-1,3,4,5-tetrahydro-2H-1,5-benzodiazepin-3-yl)-3-(3-methylsulfonylaminocarbonylphenyl)urea] | 0.7
8 | CC(C)(C)OC(=O)CN1C(=O)C(NC(=O)Nc2cccc(SCC(=O)O)c2)CN(c2ccccc2)c2ccccc21 (stereo not drawn) [Example 81, 3-[3-[1-tert-butoxycarbonylmethyl-2-oxo-5-phenyl-1,3,4,5-tetrahydro-2H-1,5-benzodiazepin-3-yl]ureido]phenylthioacetic acid] | 0.56
9 | Cc1ccc2c(c1)N(CC(=O)c1ccccc1C)C(=O)C(NC(=O)Nc1cccc(C(=O)O)c1)CN2C(=O)c1ccccn1 (stereo not drawn) [Example 105, 3-[3-[1-(2-toluoylmethyl)-2-oxo-5-(2-pyridylcarbonyl)-8-methyl-1,3,4,5-tetrahydro-2H-1,5-benzodiazepin-3-yl]ureido]benzoic acid] | 1.33

Second part, the compound after the results:

Row | Ki [nM] | Structure (SMILES)
10 | 0.63 | CC(C)(C)C(=O)CN1C(=O)[C@H](NC(=O)Nc2cccc(C(=O)O)c2)CN(C2CCCCC2)c2ccccc21 [Example 143, (R)-(-)-3-[3-(1-tert-butylcarbonylmethyl-2-oxo-5-cyclohexyl-1,3,4,5-tetrahydro-2H-1,5-benzodiazepin-3-yl)ureido]benzoic acid]
11 | 0.79 | Cc1ccccc1C(=O)CN1C(=O)C(NC(=O)Nc2cccc(-c3noc(=O)[nH]3)c2)CN(C(=O)C(C)(C)C)c2ccccc21 (stereo not drawn) [Example 62, 1-[1-(2-toluoylmethyl)-2-oxo-5-pivaloyl-1,3,4,5-tetrahydro-2H-1,5-benzodiazepin-3-yl]-3-[3-(5-oxo-4H-1,2,4-oxadiazolin-3-yl)phenyl]urea]
12 | 1.62 | Cc1ccc2c(c1)N(CC(=O)c1ccccc1C)C(=O)C(NC(=O)Nc1cccc(C(=O)O)c1)CN2C(=O)C(C)(C)CCl (stereo not drawn) [Example 94, 3-[3-[1-(2-toluoylmethyl)-2-oxo-5-(3-chloro-2,2-dimethylpropionyl)-8-methyl-1,3,4,5-tetrahydro-2H-1,5-benzodiazepin-3-yl]ureido]benzoic acid]
13 | 1.2 | CC(C)(C)C(=O)CN1C(=O)C(NC(=O)Nc2cccc(C(=O)O)c2)CN(C2CCCCC2)c2ccccc21 (stereo not drawn) [Example 121, 3-[3-(1-tert-butylcarbonylmethyl-2-oxo-5-cyclohexyl-1,3,4,5-tetrahydro-2H-1,5-benzodiazepin-3-yl)ureido]benzoic acid]
14 | 2.88 | Cc1cccc(NC(=O)NC2CN(c3ccccc3)c3ccccc3N(CC(=O)C(C)(C)C)C2=O)c1 (stereo not drawn) [Example 71, 1-(1-tert-butylcarbonylmethyl-2-oxo-5-phenyl-1,3,4,5-tetrahydro-2H-1,5-benzodiazepin-3-yl)-3-(3-methylphenyl)urea]
15 | 0.99 | CN(C(=O)CN1C(=O)C(NC(=O)Nc2cccc(C(=O)NS(C)(=O)=O)c2)CN(c2ccccc2)c2ccccc21)c1ccccc1 (stereo not drawn) [Example 15, 1-[1-(N-phenyl-N-methyl)carbamoylmethyl-2-oxo-5-phenyl-1,3,4,5-tetrahydro-2H-1,5-benzodiazepin-3-yl]-3-(3-methylsulfonylaminocarbonylphenyl)urea]
16 | 1.29 | CCC(C)(C)C(=O)N1CC(NC(=O)Nc2cccc(C(=O)O)c2)C(=O)N(CC(=O)c2ccccc2C)c2cc(C)ccc21 (stereo not drawn) [Example 93, 3-[3-[1-(2-toluoylmethyl)-2-oxo-5-(2,2-dimethylbutanoyl)-8-methyl-1,3,4,5-tetrahydro-2H-1,5-benzodiazepin-3-yl]ureido]benzoic acid]
17 | 0.98 | Cc1ccccc1C(=O)CN1C(=O)C(NC(=O)Nc2cccc(-c3nnn[nH]3)c2)CN(C(=O)C(C)(C)C)c2ccccc21 (stereo not drawn) [Example 61, 1-[1-(2-toluoylmethyl)-2-oxo-5-pivaloyl-1,3,4,5-tetrahydro-2H-1,5-benzodiazepin-3-yl]-3-[3-(tetrazol-5-yl)phenyl]urea]
18 | 1.57 | Cc1ccccc1C(=O)CN1C(=O)C(NC(=O)Nc2cccc(CC(=O)O)c2)CN(C(=O)C(C)(C)C)c2ccccc21 (stereo not drawn) [Example 72, 3-[3-[1-(2-toluoylmethyl)-2-oxo-5-pivaloyl-1,3,4,5-tetrahydro-2H-1,5-benzodiazepin-3-yl]ureido]phenylacetic acid]
19 | 2.86 | COc1cccc(NC(=O)NC2CN(C3CCCCC3)c3ccccc3N(CC(=O)C(C)(C)C)C2=O)c1 (stereo not drawn) [Example 151, 1-(1-tert-butylcarbonylmethyl-2-oxo-5-cyclohexyl-1,3,4,5-tetrahydro-2H-1,5-benzodiazepin-3-yl)-3-(3-methoxyphenyl)urea]
20 | 5.02 | COC(=O)N1CC(NC(=O)Nc2cccc(C)c2)C(=O)N(CC(=O)c2ccccc2C)c2ccccc21 (stereo not drawn) [Example 49, 1-[1-(2-toluoylmethyl)-2-oxo-5-methoxycarbonyl-1,3,4,5-tetrahydro-2H-1,5-benzodiazepin-3-yl]-3-(3-methylphenyl)urea]

The compounds below were run on pentagastrin-stimulated acid secretion (assay: Measurement of Inhibition of Pentagastrin-stimulated Acid Secretion). Settings: 0.1 mg/kg, intraduodenal, rat; acid output from 1 to 4 hours after administration; pentagastrin 15 μg/kg/hr.
Format: in vivo, male Sprague-Dawley (SD)-strain rats
Protocol: Male Sprague-Dawley (SD)-strain rats were used. Each rat was operated to ligate the pylorus, and equip with a duodenal catheter and gastric fistula under a ether anesthesia. After the operation, each rat was placed in a Bollman-type cage and continuously infused pentagastrin (15 μg/kg/hr) through the tail vein. Test compounds were suspended in 0.5% aqueous sodium carboxymethylcellulose (which hereinafter be abbreviated as "vehicle"). Vehicle or test compound was administered through the intraduodenal catheter 1 hour after the beginning of pentagastrin infusion. Acidity of the collected gastric juice was measured by an automatic titillation device. Acid output was determined by multiplying the volume by the acidity of gastric juice. […] [formula]

Row | Structure (SMILES) | inhibition in vivo at 0.1 mg/kg [%]
21 | CC(C)(C)C(=O)CN1C(=O)[C@H](NC(=O)Nc2cccc(C(=O)O)c2)CN(C2CCCCC2)c2ccccc21 [Example 143, (R)-(-)-3-[3-(1-tert-butylcarbonylmethyl-2-oxo-5-cyclohexyl-1,3,4,5-tetrahydro-2H-1,5-benzodiazepin-3-yl)ureido]benzoic acid] | 54.6

Same assay, conditions: 0.3 mg/kg, intraduodenal, rat; acid output from 1 to 4 hours after administration; pentagastrin 15 μg/kg/hr

Row | Structure (SMILES) | inhibition in vivo at 0.3 mg/kg [%]
22 | CC(C)(C)C(=O)CN1C(=O)C(NC(=O)Nc2cccc(C(=O)O)c2)CN(C2CCCCC2)c2ccccc21 (stereo not drawn) [Example 121, 3-[3-(1-tert-butylcarbonylmethyl-2-oxo-5-cyclohexyl-1,3,4,5-tetrahydro-2H-1,5-benzodiazepin-3-yl)ureido]benzoic acid] | 47
23 | Cc1ccc(NC(=O)N[C@@H]2CN(C3CCCCC3)c3ccccc3N(CC(=O)C(C)(C)C)C2=O)cc1C(=O)O [Example 166, (R)-(-)-2-methyl-5-[3-(1-tert-butylcarbonylmethyl-2-oxo-5-cyclohexyl-1,3,4,5-tetrahydro-2H-1,5-benzodiazepin-3-yl)ureido]benzoic acid] | 51.2

Same assay, conditions: 30 mg/kg, intraduodenal, rat; acid output from 1 to 4 hours after administration; pentagastrin 15 μg/kg/hr

Row | Structure (SMILES) | inhibition in vivo at 30 mg/kg [%]
24 | Cc1ccc2c(c1)N(CC(=O)c1ccccc1C)C(=O)C(NC(=O)Nc1cccc(C(=O)O)c1)CN2C(=O)C(C)(C)CCl (stereo not drawn) [Example 94, 3-[3-[1-(2-toluoylmethyl)-2-oxo-5-(3-chloro-2,2-dimethylpropionyl)-8-methyl-1,3,4,5-tetrahydro-2H-1,5-benzodiazepin-3-yl]ureido]benzoic acid] | 93.3
25 | Cc1ccc2c(c1)N(CC(=O)c1ccccc1C)C(=O)C(NC(=O)Nc1cccc(C(=O)O)c1)CN2C(=O)c1ccco1 (stereo not drawn) [Example 113, 3-[3-[1-(2-toluoylmethyl)-2-oxo-5-(furan-2-ylcarbonyl)-8-methyl-1,3,4,5-tetrahydro-2H-1,5-benzodiazepin-3-yl]ureido]benzoic acid] | 75.7
26 | Cc1ccc2c(c1)N(CC(=O)c1cccs1)C(=O)C(NC(=O)Nc1cccc(C(=O)O)c1)CN2C(=O)C(C)(C)C (stereo not drawn) [Example 89, 3-[3-[1-(2-Thenoylmethyl)-2-oxo-5-pivaloyl-8-methyl-1,3,4,5-tetrahydro-2H-1,5-benzodiazepin-3-yl]ureido]benzoic acid] | 87.8
27 | Cc1ccc2c(c1)N(CC(=O)C(C)(C)C)C(=O)C(NC(=O)Nc1cccc(C(=O)O)c1)CN2C1CCCCC1 (stereo not drawn) [Example 118, 3-[3-(1-tert-butylcarbonylmethyl-2-oxo-5-cyclohexyl-8-methyl-1,3,4,5-tetrahydro-2H-1,5-benzodiazepin-3-yl)ureido]benzoic acid] | 88.3
